{"source": "patent US10508111B2", "about": "“6-[5-amino-6-(2-ethoxyethoxy)-imidazo[4,5-B]pyridin-3-yl]-nicotinonitrile derivatives and their use as IRAK inhibitors” (GALAPAGOS NV, priority 2015, dated 2019)", "key": {"[1]": {"test_system": "IL-1β triggered MMP13 release in SW1353 cells", "assay": "SW1353 cellular selectivity assay, IL-1β trigger, MMP13 readout", "type": "cell-based, human", "conditions": "IL-1β trigger 1 ng/mL; for IC50: Homo sapiens; for IL-1β trigger MMP13 PIN at 20 μM: percent inhibition at 20 μM compound", "excerpt": "(§1) The aim of this assay is to evaluate the selectivity of compounds of the invention for the activated TLR/IRAK-4 pathway in an in vitro human cellular assay setting. SW1353 cells are from a chondrocytic cell line and are responsive to both the interleukin 1 (IL-1) and the TNFα cytokine triggers. Both cytokine triggers induce the expression of interleukin 6 (IL-6) and MMP13 by these cells. IL-6 and MMP13 releases are used as readouts in this assay and represent a measure for the level of inhibition of the TLR/IRAK-4 pathway by the tested compound.\n(§2) SW1353 cells are cultured in DMEM supplemented with 10% FBS and 1% Penicillin/Streptomycin. Cells are incubated at 37° C. in a humidified atmosphere of 5% CO2 and subcultured twice a week. During subculturing, trypsin-EDTA is used to detach the cells, followed by a neutralization step with cell culture medium. After centrifugation (1,000 rpm during 5 min), the pellet is resuspended in cell culture medium and cells are counted using an automated cell counter (Invitrogen Countess™).\n(§3) Cells are used at passage 16 and plated at a density of 15,000 cells per well in 120 μL cell culture medium in 96-well culture plates. Cells are allowed to attach during overnight incubation.\n(§4) SW1353 cells are pre-incubated with test compound by addition of 15 μL of 10× concentrated compound solution for 2 h at 37° C. and 5% CO2. The compounds are tested at different concentrations and prepared by 3-fold serial dilutions from the 10 mM stock solution in DMSO followed by a 1/50 dilution step in cell culture medium. Final test concentrations in the assay start from 20 μM, with subsequent 3-fold serial dilutions with equal final DMSO concentrations of 0.2%. After the compound pre-incubation step, the SW1353 cells are triggered by addition of 15 μL of 10× concentrated IL-1f (Peprotech, 200-01B) or TNFα trigger (Peprotech, 300-01A) to the wells with final assay volume of 150 μL per well and final trigger concentration of 1 ng/mL and 10 ng/mL, respectively. Negative controls are adjusted with equal DMSO concentrations without trigger. The assay plates are then incubated in a humidified incubator at 37° C. and 5% CO2. Cell supernatants are harvested 24 h and 48 h later by transferring the cell medium into a V-bottom polypropylene 96-well plate and stored at −80° C. until ELISA readout.\nThe levels of secreted MMP13 in the cell supernatants are quantified in an antibody capture activity assay. […] After incubation for 1 h at 37° C., fluorescence of the converted substrate is measured with a PerkinElmer EnVision® (excitation wavelength: 320 nm, emission wavelength: 405 nm).\n(§5) All controls are measured within the linear range of the human IL-6 and MMP13 standard curve of the ELISA. […]"}, "[2]": {"test_system": "IL-1β triggered IL-6 release in SW1353 cells", "assay": "SW1353 cellular selectivity assay, IL-1β trigger, IL-6 ELISA readout", "type": "cell-based, human", "conditions": "IL-1β trigger 1 ng/mL; for IC50: Homo sapiens; for IL-1β trigger IL-6 PIN at 20 μM: percent inhibition at 20 μM compound", "excerpt": "as §1, §2, §3, §4\nThe levels of secreted IL-6 in the cell supernatants are quantified in an enzyme-linked immunosorbent assay (ELISA). […] Luminescence of the converted substrate is measured with a Luminoskan™ Ascent luminometer.\nas §5"}}}
{"smiles": "N#Cc1ccc(-n2cnc3cc(OCCOCCO)c(NC4CCOCC4)nc32)nc1", "note": "[Compound 1, 6-[6-[2-(2-hydroxy-ethoxy)-ethoxy]-5-(tetrahydro-pyran-4-ylamino)-imidazo[4,5-b]pyridin-3-yl]-nicotinonitrile]", "values": [{"measurement": "IC50", "setting": "[1]", "result": 36, "unit": "nM"}, {"measurement": "IL-1β trigger MMP13 PIN at 20 μM", "setting": "[1]", "result": "[81%]"}, {"measurement": "IC50", "setting": "[2]", "result": 54, "unit": "nM"}, {"measurement": "IL-1β trigger IL-6 PIN at 20 μM", "setting": "[2]", "result": "[89%]"}]}
{"smiles": "C[C@]1(O)CC[C@@H](Nc2nc3c(cc2OCCOCCO)ncn3-c2ccc(C#N)cn2)CC1", "note": "[Compound 12, 6-[6-[2-(2-hydroxyethoxy)ethoxy]-5-[((cis-1,4)-4-hydroxy-4-methylcyclohexyl)amino]imidazo[4,5-b]pyridin-3-yl]pyridine-3-carbonitrile]", "values": [{"measurement": "IC50", "setting": "[1]", "result": 29, "unit": "nM"}, {"measurement": "IL-1β trigger MMP13 PIN at 20 μM", "setting": "[1]", "result": "[75%]"}, {"measurement": "IC50", "setting": "[2]", "result": 40, "unit": "nM"}, {"measurement": "IL-1β trigger IL-6 PIN at 20 μM", "setting": "[2]", "result": "[80%]"}]}
